Usually TGI stands for the reduction of tumour growth relative to the control group. Low readings indicate a weaker effect on the tumour, high ones a stronger effect on the tumour.

We go through one compound from patent publication US9969698B2, “Quinoxalinyl-piperazinamide methods of use” (REXAHN PHARMACEUTICALS, INC., priority 2015, dated 2018).

The subject of series [1] is CYP450 isozymes 1A2, 2A6, 2B6, 2C8, 2C9, 2C19, 2D6. Description: Loss of RX-5902 after incubation with other expressed CYP450 isozymes. In kind it is in vitro ADME. Conditions: 30-minute incubation with any other CYP isozyme. On the procedure:
Two in vitro studies were performed to examine the involvement of specific cytochrome P450 (CYP450) isozymes in the in vitro metabolism of RX-5902. In the first study, the loss of RX-5902 was measured after incubation with expressed CYP450 isozymes (1A2, 2A6, 2B6, 2C8, 2C9, 2C19, 2D6, 3A4 and 3A5). […] In the second study, RX-5902 was incubated with pooled human liver microsomes in the presence of CYP450 isozyme-selective chemical inhibitors. The inhibitors tested were selective for 1A2, 2A6, 2B6, 2C8, 2C9, 2C19, 2D6, and 3A4/5.

In another series the test system is SK-MEL-28 cells. In words: Western blot of cyclin D1, c-Myc and p-c-Jun. In kind it is cell-based. On the procedure: (§1) MDA-MB-231, SK-MEL-28, and WI-38 cells were obtained from ATCC (Manassas, Va., USA) and were cultured according to the vendor's instructions. Anti-p68 antibody and antiY593-p68 antibody were purchased from Cell Signaling (Danvers, Mass.) and Abcam (Cambridge, Mass.), respectively. Antibodies against β-actin, cyclin D1, p-c-Jun and c-Myc, were purchased from Santa Cruz (Dallas, Tex.). Anti-phospho-tyrosine antibody and HRP conjugated GAPDH antibody were obtained from Cell Signaling (Danvers, Mass.). Recombinant β-catenin and p68 protein were purchased from Creative Biomart (Shirley, N.Y.) and Origene (Rockville, Md.), respectively.
(§2) RX-5902 was dissolved in DMSO to prepare a stock solution of 2 mM. The stock solution was stored at −20° C. and diluted with medium to prepare working concentrations.
(§3) Protein mix or cell lysates were separated by SDS-PAGE and transferred to PVDF membrane. The membrane was blocked by blocking buffer (1×TBST containing 5% BSA) at room temperature for 1 hour. After a brief wash, the membrane was incubated with primary antibody in blocking buffer at 4° C. overnight. After incubation in primary antibody, the membrane was washed with 1×TBST three times and subsequently incubated with HRP conjugated secondary antibody in blocking buffer at room temperature for 1 hour. The membrane was again washed three times and visualized by ECL system (Thermo Scientific, Rockford, Ill.).
(§4) Since RX-5902 directly binds to Y593 phospho-p68, it was hypothesized that treatment of cells with RX-5902 would interfere with the phospho-p68/β-catenin interaction and consequently affect the expression of several growth associated genes, including p-c-Jun, c-Myc and cyclin D, which are regulated by phospho-p68/β-catenin interaction. Thus, cyclin D1 and c-Myc expression, as well as phosphorylation of c-Jun in cells treated with RX-5902, were analyzed. Cancer cell lines, SK-MEL-28 and MDA-MB-231, and normal fetal lung fibroblasts, WI-38, were used.

The subject of another series is WI-38 cells. Description: Western blot of cyclin D1, c-Myc and p-c-Jun. Type of series: cell-based. Conditions: even at 70 nM. On the procedure: as §1, §2, §3, §4
Series [2] is described as follows: Solid state characterisation of Form 1. Type of series: physicochemical. Conditions: crystalline solid. The text has this:
A batch of RX-5902 was characterized by various solid state techniques. The supplied material was a crystalline solid, denoted as Form 1.

In series [3] the test system is human renal tumor xenografts (Caki-1). Type of series: in vivo. The note with it: oral; for TGI: 5 days on/2 days off, Day 21. An excerpt: The efficacy of RX-5902 in human cancer xenograft mouse models is examined. Female nude mice (nu/nu, Harlan or CRL: NU(NCr)-Foxn1^nu, Charles River), 9-10 weeks old, with a body weight (BW) range of 15-30 g on day 1 of the study, are fed ad libitum water (reverse osmosis, 1 ppm C1), and NIH 31 Modified and Irradiated Lab Diet® consisting of 18.0% crude protein, 5.0% crude fat, and 5.0% crude fiber. The mice are housed on irradiated Enrich-o'Cobs™ Laboratory Animal Bedding in static microisolators on a 12-hour light cycle at 20-22° C. (68-72° F.) and 40-60% humidity. The study complies with the recommendations of the Guide for, Care and Use of Laboratory Animals with respect to restraint, husbandry, surgical procedures, feed and fluid regulation, and veterinary care.
Various human tumor cell lines (e.g., HCT116, HT29, H460, H69, Caki-1, CaSki, MiaPaca2, BxPC3 and Colo 205 cells [ATCC, Manassas, Va., USA]) are cultured according to ATCC's instruction. The tumor cells are cultured in tissue culture flasks in a humidified incubator at 37° C., in an atmosphere of 5% CO2 and 95% air.
The cells are harvested during exponential growth and re-suspended with phosphate buffered saline. Each test animal receives a subcutaneous (s.c.) injection of 5×10^6 tumor cells into the right flank and tumor growth is monitored as the average tumor size approaches the target range of 80-300 mm^3. When tumors reach the target size mice are randomized into several groups (n=10-20) and treatment with various regimens of RX-5902 or a positive (e.g., gemcitabine) or negative control (e.g.; vehicle, saline) is initiated. Tumors and body weights are measured regularly until the study is terminated.
Tumors are measured in two dimensions using calipers, and volume is calculated using the formula:
[formula] where w=width and 1=length, in mm, of the tumor. Tumor weight may be estimated with the assumption that 1 mg is equivalent to 1 mm^3 of tumor volume.
Treatment begins on Day 1 in eight groups of mice (n=10-20/group) with established subcutaneous tumors of a particular cell line. Each group is treated according to the study design. All doses are adjusted per body weight. Animals in each group are divided for efficacy and sampling purposes. There are also groups designated to vehicle control and no treatment for sampling purposes.
[…] […] Percent tumor growth inhibition (% TGI) is defined as the difference between the MTV of the designated control group (vehicle administration) and the MTV of the drug-treated group, expressed as a percentage of the MTV of the control group: % TGI=[1−(MTVdrug treated/MTVcontrol)]×100 The data set for TGI analysis includes all animals in a group, except those that die due to treatment-related (TR) or non-treatment-related (NTR) causes. An agent that produces at least 60% TGI in this assay is considered to be potentially therapeutically active.
Animals are monitored individually for tumor growth until Day 71. […] The time to endpoint (TTE) for each mouse is calculated with the following equation:
[formula] where b is the intercept and m is the slope of the line obtained by linear regression of a log-transformed tumor growth data set. […] In instances in which the log-transformed calculated TTE precedes the day prior to reaching endpoint or exceeds the day of reaching tumor volume endpoint, a linear interpolation is performed to approximate TTE. Any animal determined to have died from treatment-related (TR) causes is assigned a TTE value equal to the day of death. […]

Each structure is given as a SMILES string. Read-outs that look alike come from different tables or passages of the source.

As for `COc1cc(OC)cc(N2CCN(C(=O)Nc3nc4cc(F)ccc4nc3OC)CC2)c1` [RX-5902, 4-(3,5-dimethoxyphenyl)-N-(7-fluoro-3-methoxyquinoxalin-2-yl)piperazine-1-carboxamide], the “loss of RX-5902” value in series [1] is “little loss”. In addition, the “cyclin D1, c-Myc and p-c-Jun protein levels” value in the series on SK-MEL-28 cells (20 nM) was “did not change protein levels”. In addition, the “cyclin D1, c-Myc expression and c-Jun phosphorylation” value in the series on SK-MEL-28 cells (70 nM) was “decrease in expression of both cyclin D1 and c-Myc and a decrease in c-Jun phosphorylation”. Further, the “cyclin D1, c-Myc expression and c-Jun phosphorylation” value in the series with WI-38 cells is listed as “did not result in any significant change”. Also, in series [2], the hygroscopicity entry is on record as “non-hygroscopic” and the stability to humidity entry is given as “stable to exposure to humidity”. The same compound had a TGI in series [3] (50 mg/kg daily) of 80%. For the same compound, in series [3] (70 mg/kg daily), the complete tumor regressions is given as 1/10, the partial tumor regressions is 6/10 and the tumour growth inhibition (TGI) is 96%. In series [3] (50 and 70 mg/kg daily, both doses (P<0.0001)), the “overall survival of the animals” value is given as “extended the overall survival”.
